A word on the IC50: it is the concentration at which inhibition is half-maximal. As usually defined, the Ki is the equilibrium dissociation constant of an inhibitor or competing ligand from its target.

Where a name gives a salt, the structure may show the parent alone.

Sequence of cloned human P2Y1 receptors (P47900 whole entry): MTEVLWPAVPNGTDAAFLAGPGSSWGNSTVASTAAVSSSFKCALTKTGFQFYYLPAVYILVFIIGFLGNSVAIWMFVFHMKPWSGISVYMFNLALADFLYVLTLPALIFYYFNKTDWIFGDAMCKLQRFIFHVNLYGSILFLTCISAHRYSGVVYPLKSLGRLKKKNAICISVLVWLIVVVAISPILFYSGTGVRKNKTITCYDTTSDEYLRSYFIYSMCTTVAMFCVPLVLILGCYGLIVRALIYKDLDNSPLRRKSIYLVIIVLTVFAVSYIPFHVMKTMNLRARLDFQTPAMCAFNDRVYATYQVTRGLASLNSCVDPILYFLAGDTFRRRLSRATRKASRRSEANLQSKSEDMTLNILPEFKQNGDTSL

The first test relates to human platelet rich plasma (PRP). The test can be described thus: ADP induced platelet aggregation assay. Particulars: Homo sapiens, Platelet, 5 min, read-out: PA IC50 (μM) @ 10 μM ADP, human PRP, 10 μM ADP, AUC at 5 minute.
As for `CC1(C)CN(c2ccccc2NC(=O)Nc2nc3ccc(Cl)cc3s2)c2c(O)cc(F)c(-c3nc4ccc(F)cc4s3)c21` [Example 139, 1-(6-Chlorobenzo[d]thiazol-2-yl)-3-(2-(5-fluoro-4-(6-fluorobenzo[d]thiazol-2-yl)-7-hydroxy-3,3-dimethylindolin-1-yl)phenyl)urea], the IC50 worked out at 0.57 µM.

`CC(C)(C)c1ccc(-c2c(F)cc(O)c3c2C(C)(C)CN3c2ccccc2NC(=O)Nc2ccc(OC(F)(F)F)cc2)cc1` [Example 241, 1-(2-(4-(4-(tert-Butyl)phenyl)-5-fluoro-7-hydroxy-3,3-dimethylindolin-1-yl)phenyl)-3-(4-(trifluoromethoxy)phenyl)urea]: the IC50 came to 0.15 µM.

On to `CC1(C)CN(c2ccccc2NC(=O)Nc2nc3ccc(Cl)nc3s2)c2c(O)cc(F)c(-c3ccc(Cl)s3)c21` [Example 145, 1-(5-Chlorothiazolo[5,4-b]pyridin-2-yl)-3-(2-(4-(5-chlorothiophen-2-yl)-5-fluoro-7-hydroxy-3,3-dimethylindolin-1-yl)phenyl)urea], for which the half-maximal inhibitory concentration (IC50) worked out at 0.13 µM.

For `CC1(C)CN(c2ccccc2NC(=O)Nc2ccc(OC(F)(F)F)cc2)c2c(O)cc(F)c(-c3cc(C(F)(F)F)n[nH]3)c21` [Example 275, 1-(2-(5-Fluoro-7-hydroxy-3,3-dimethyl 4-(3-(trifluoromethyl)-1H-pyrazol-5-yl)indolin-1-yl)phenyl)-3-(4-(trifluoromethoxy)phenyl)urea], the IC50 was 5.69 µM.

Consider `CC1(C)CN(c2ccccc2NC(=O)Nc2nc3ccc(F)cc3s2)c2c(O)cc(F)c(-c3nc4cc(Cl)ccc4s3)c21` [Example 138, 1-(2-(4-(5-Chlorobenzo[d]thiazol-2-yl)-5-fluoro-7-hydroxy-3,3-dimethylindolin-1-yl)phenyl)-3-(6-fluorobenzo[d]thiazol-2-yl)urea], for which the IC50 stood at 0.47 µM.

Take `CC1(C)CN(c2ccccc2NC(=O)Nc2nc3ccc(Cl)nc3s2)c2c(O)cc(F)c(-c3nc4ccc(F)cc4s3)c21` [Example 143, 1-(5-Chlorothiazolo[5,4-b]pyridin-2-yl)-3-(2-(5-fluoro-4-(6-fluorobenzo[d]thiazol-2-yl)-7-hydroxy-3,3-dimethylindolin-1-yl)phenyl)urea]: the IC50 amounted to 0.33 µM.

As for `CC1(C)CN(c2ccccc2NC(=O)Nc2csc(Cl)n2)c2c(O)cc(F)c(-c3ccc(C(F)(F)F)cn3)c21` [Example 169, 1-(2-Chlorothiazol-4-yl)-3-(2-(5-fluoro-7-hydroxy-3,3-dimethyl-4-(5-(trifluoromethyl)pyridin-2-yl)indolin-1-yl)phenyl)urea], the IC50 was 0.1 µM.

As for `CC1(C)CN(c2ccccc2NC(=O)Nc2ccc(OC(F)(F)F)cc2)c2c(O)ccc(-c3ccc(Cl)cn3)c21` [Example 122, 1-(2-(4-(5-Chloropyridin-2-yl)-7-hydroxy-3,3-dimethylindolin-1-yl)phenyl)-3-(4-(trifluoromethoxy)phenyl)urea], the IC50 is 0.51 µM.

Take `COC(=O)c1ccc(-c2c(F)cc(O)c3c2C(C)(C)CN3c2ccccc2NC(=O)Nc2ccc(OC(F)(F)F)cc2)cc1` [Example 244, Methyl 4-(5-fluoro-7-hydroxy-3,3-dimethyl-1-(2-(3-(4-(trifluoromethoxy)phenyl)ureido)phenyl)indolin-4-yl)benzoate]: the IC50 was determined as 0.3 µM.

On to `CC1(C)CN(c2ccccc2NC(=O)Nc2ccc(OC(F)(F)F)cc2)c2c(O)ccc(-c3ccc(F)nc3)c21` [Example 115, 1-(2-(4-(6-Fluoropyridin-3-yl)-7-hydroxy-3,3-dimethylindolin-1-yl)phenyl)-3-(4-(trifluoromethoxy)phenyl) urea], for which the IC50 was 0.31 µM.

Turning to `CC1(C)CN(c2ccccc2NC(=O)Nc2ccc(OC(F)(F)F)cc2)c2c(O)ccc(-c3nc4ccc(Cl)cc4s3)c21` [Example 136, 1-(2-(4-(6-Chlorobenzo[d]thiazol-2-yl)-7-hydroxy-3,3-dimethylindolin-1-yl)phenyl)-3-(4-(trifluoromethoxy)phenyl)urea], the IC50 turned out to be 0.5 µM.

Consider `COc1cncc(-c2ccc(O)c3c2C(C)(C)CN3c2ccccc2NC(=O)Nc2ccc(OC(F)(F)F)cc2)c1` [Example 118, 1-(2-(7-Hydroxy-4-(5-methoxypyridin-3-yl)-3,3-dimethylindolin-1-yl)phenyl)-3-(4-(trifluoromethoxy)phenyl) urea], for which the IC50 worked out at 0.6 µM.

Turning to `CC1(C)CN(c2ccccc2NC(=O)Nc2nc3ccc(F)cc3s2)c2c(O)ccc(-c3nc4ccc(Cl)cc4s3)c21` [Example 137, 1-(2-(4-(6-Chlorobenzo[d]thiazol-2-yl)-7-hydroxy-3,3-dimethylindolin-1-yl)phenyl)-3-(6-fluorobenzo[d]thiazol-2-yl)urea], the IC50 worked out at 1.06 µM.

In the case of `CC1(C)CN(c2ccccc2NC(=O)Nc2ccc(OC(F)(F)F)cc2)c2c(O)c(F)cc(-c3nc4cc(Cl)ccc4s3)c21` [Example 177, 1-(2-(4-(5-Chlorobenzo[d]thiazol-2-yl)-6-fluoro-7-hydroxy-3,3-dimethylindolin-1-yl)phenyl)-3-(4-(trifluoromethoxy)phenyl)urea], the IC50 was found to be 2.3 µM.

As to `CC1(C)CN(c2ccccc2NC(=O)Nc2nc3ccc(F)cc3s2)c2c(O)cc(F)c(-c3ccc(Cl)s3)c21` [Example 140, 1-(2-(4-(5-Chlorothiophen-2-yl)-5-fluoro-7-hydroxy-3,3-dimethylindolin-1-yl)phenyl)-3-(6-fluorobenzo[d]thiazol-2-yl)urea], the IC50 was 0.17 µM.

Turning to `CC1(C)CN(c2ccccc2NC(=O)Nc2ccc(OC(F)(F)F)cc2)c2c(O)cc(F)c(-c3ncc(Br)cn3)c21` [Example 166, 1-(2-(4-(5-Bromopyrimidin-2-yl)-5-fluoro-7-hydroxy-3,3-dimethylindolin-1-yl)phenyl)-3-(4-(trifluoromethoxy)phenyl)urea], the IC50 was 1.25 µM.

For `CC1(C)CN(c2ccccc2NC(=O)Nc2ccc(OC(F)(F)F)cc2)c2c(O)cc(F)c(-c3ccc(Cl)s3)c21` [Example 142, 1-(2-(4-(5-Chlorothiophen-2-yl)-5-fluoro-7-hydroxy-3,3-dimethylindolin-1-yl)phenyl)-3-(4-(trifluoromethoxy)phenyl)urea], the half-maximal inhibitory concentration (IC50) was 0.13 µM.

`CC1(C)CN(c2ccccc2NC(=O)Nc2nc3ccc(Cl)cc3s2)c2c(O)ccc(-c3nc4cc(F)ccc4s3)c21` [Example 172, 1-(6-Chlorobenzo[d]thiazol-2-yl)-3-(2-(4-(5-fluorobenzo[d]thiazol-2-yl)-7-hydroxy-3,3-dimethylindolin-1-yl)phenyl)urea, TFA]: the IC50 came to 0.26 µM.

With `CC1(C)CN(c2ccccc2NC(=O)Nc2csc(Cl)n2)c2c(O)cc(F)c(-c3nc4cc(Cl)ccc4s3)c21` [Example 167, 1-(2-(4-(5-Chlorobenzo[d]thiazol-2-yl)-5-fluoro-7-hydroxy-3,3-dimethylindolin-1-yl)phenyl)-3-(2-chlorothiazol-4-yl)urea], the IC50 stood at 0.47 µM.

For `CC1(C)CN(c2ccccc2NC(=O)Nc2nc3ccc(Cl)cc3s2)c2c(O)cc(F)c(-c3nc4cc(Cl)ccc4s3)c21` [Example 156, 1-(6-Chlorobenzo[d]thiazol-2-yl)-3-(2-(4-(5-chlorobenzo[d]thiazol-2-yl)-5-fluoro-7-hydroxy-3,3-dimethylindolin-1-yl)phenyl)urea], the IC50 came out at 0.97 µM.

Consider `CC1(C)CN(c2ccccc2NC(=O)Nc2nc3ccc(Cl)nc3s2)c2c(O)cc(F)c(-c3nc4cc(Cl)ccc4s3)c21` [Example 141, 1-(2-(4-(5-Chlorobenzo[d]thiazol-2-yl)-5-fluoro-7-hydroxy-3,3-dimethylindolin-1-yl)phenyl)-3-(5-chlorothiazolo[5,4-b]pyridin-2-yl)urea], for which the concentration for half-maximal inhibition (IC50) was 0.55 µM.

On to `CCC1(CC)CN(c2ccccc2NC(=O)Nc2nc3ccc(F)cc3s2)c2c(O)ccc(F)c21` [Example 32, 1-(2-(3,3-Diethyl-4-fluoro-7-hydroxyindolin-1-yl)phenyl)-3-(6-fluorobenzo[d]thiazol-2-yl)urea], for which the IC50 amounted to 0.37 µM.

The test is the same for the next values; noted with them: read-out: PA IC50 (μM) @ 10 μM ADP; human PRP, 10 μM ADP, AUC at 5 minute.
As to `CC1(C)CN(c2ccccc2NC(=O)Nc2nc3ccc(F)cc3s2)c2c(O)cc(F)c(-c3ccc(F)cc3)c21` [Example 219, 1-(2-(5-Fluoro-4-(4-fluorophenyl)-7-hydroxy-3,3-dimethylindolin-1-yl)phenyl)-3-(6-fluorobenzo[d]thiazol-2-yl)urea], the IC50 is 0.36 µM.

`CC1(C)CN(c2ccccc2NC(=O)Nc2csc(Cl)n2)c2c(O)cc(F)c(-c3ccc(Cl)cc3)c21` [Example 221, 1-(2-(4-(4-Chlorophenyl)-5-fluoro-7-hydroxy-3,3-dimethylindolin-1-yl)phenyl)-3-(2-chlorothiazol-4-yl)urea]: the IC50 is 0.13 µM.

With `CC1(C)CN(c2ccccc2NC(=O)Nc2ccc(OC(F)(F)F)cc2)c2c(O)cc(F)c(-c3ccc(Cl)cc3)c21` [Example 220, 1-(2-(4-(4-Chlorophenyl)-5-fluoro-7-hydroxy-3,3-dimethylindolin-1-yl)phenyl)-3-(4-(trifluoromethoxy)phenyl)urea], the IC50 was 0.24 µM.

Another test concerns the target cloned human P2Y1 receptors (Homo sapiens (Human), UniProt P47900). The test can be described thus: Binding Assay B - Scintillation Proximity Assay (SPA) for P2Y1 binding, [33P] 2MeS-ADP. Particulars: SPA, 0.3 nM [33P] 2MeS-ADP, Cheng-Prusoff; read-out: P2Y1 Ki (nM) using binding assay B. As for the experimental part: Binding Assay B—Scintillation Proximity Assay (SPA) for P2Y1 Binding
A SPA membrane binding assay was used to identify inhibitors of [^33P] […] Reactions were allowed to proceed to completion at room temperature for 1 hour followed by centrifugation of the plate for 5 min. About 40 μL of the aqueous solution was aspirated. Plates were sealed and the [^33P]
A general note: Scintillation proximity formats need no separation of bound from free tracer.
With `CC(C)(C)c1ccc(-c2c(F)cc(O)c3c2C(C)(C)CN3c2ccccc2NC(=O)Nc2ccc(OC(F)(F)F)cc2)cc1` [Example 241, 1-(2-(4-(4-(tert-Butyl)phenyl)-5-fluoro-7-hydroxy-3,3-dimethylindolin-1-yl)phenyl)-3-(4-(trifluoromethoxy)phenyl)urea], the Ki was determined as 33.3 nM.

Turning to `CC1(C)CN(c2ccccc2NC(=O)Nc2csc(C(F)(F)F)n2)c2c(O)cc(F)c(-c3ccc(Cl)cc3)c21` [Example 223, 1-(2-(4-(4-Chlorophenyl)-5-fluoro-7-hydroxy-3,3-dimethylindolin-1-yl)phenyl)-3-(2-(trifluoromethyl)thiazol-4-yl)urea], the Ki amounted to 34.4 nM.

Consider `CC1(C)CN(c2ccccc2NC(=O)Nc2ccc(OC(F)(F)F)cc2)c2c(O)cc(F)c(-c3ccc(C(F)(F)F)cc3)c21` [Example 222, 1-(2-(5-Fluoro-7-hydroxy-3,3-dimethyl-4-(4-(trifluoromethyl)phenyl)indolin-1-yl)phenyl)-3-(4-(trifluoromethoxy)phenyl)urea], for which the Ki was 35 nM.
